Data reported in patent US11166460B2, “α-amino acrylate microbicide, and preparation method therefor and uses thereof” (priority 2017, dated 2021).
Values after ≈ are worked out from the molar mass of the structure shown. Where two headings read alike, the source gives them in different places.

Assays:
[1] = system: tobacco mosaic virus (TMV); experiment: Anti-TMV curative activity (treatment mode), live friction inoculation on tobacco seedlings; type: in vivo; conditions: for inhibition at 100 µg/mL: Tobacco mosaic virus, read-out: Anti-TMV activity, Curative effect (inhibition), 100 μg/mL, tobacco seedlings, checked on seventh day
[2] = system: tobacco mosaic virus (TMV); experiment: Anti-TMV inactivation activity (inactivation mode), compound mixed with TMV before inoculation of tobacco leaves; type: in vivo; conditions: Tobacco mosaic virus, read-out: Anti-TMV activity, Inactivation effect (inhibition)
[3] = system: tobacco mosaic virus (TMV); experiment: Anti-TMV protective activity (protection mode), live friction inoculation on tobacco seedlings; type: in vivo; conditions: Tobacco mosaic virus, read-out: Anti-TMV activity, Protection effect (inhibition)
[4] = system: tobacco mosaic virus (TMV); experiment: Anti-TMV inducing activity (induction mode), tobacco seedlings; type: in vivo; conditions: Tobacco mosaic virus, read-out: Anti-TMV activity, Induction effect (inhibition), 100 μg/mL, tobacco seedlings
Alternaria solani = experiment: Fungicidal activity, fungi growth rate method, AS; type: cell-based; conditions: Alternaria solani, 50 μg/mL
Botrytis cinerea = experiment: Fungicidal activity, fungi growth rate method, BC; type: cell-based; conditions: Botrytis cinerea, 50 μg/mL
Cercospora arachidicola = experiment: Fungicidal activity, fungi growth rate method, CA; type: cell-based; conditions: Mycosphaerella arachidis, 50 μg/mL
wheat Gibberella zeae = experiment: microbe, parasite or virus in culture; type: cell-based; conditions: Fusarium graminearum
[5] = system: Phytophthora infestans (Mont) de Bary; experiment: microbe, parasite or virus in culture; type: cell-based; conditions: Phytophthora infestans
Physalospora piricola = experiment: Fungicidal activity, fungi growth rate method, PP; type: cell-based; conditions: 50 μg/mL
Pellicularia sasakii = experiment: Fungicidal activity, fungi growth rate method, PS; type: cell-based; conditions: 50 μg/mL
Rhizoctonia cerealis = experiment: Fungicidal activity, fungi growth rate method, RC; type: cell-based; conditions: Ceratobasidium cereale, 50 μg/mL
Sclerotinia sclerotiorum = experiment: microbe, parasite or virus in culture; type: cell-based; conditions: Sclerotinia sclerotiorum; for inhibition at 50 µg/mL: 50 μg/mL; for EC90: read-out: EC90 against S. sclerotiorum in vitro
[6] = read-out: Fungicidal activity, inhibition, AS
[7] = read-out: Fungicidal activity, inhibition, BC
[8] = read-out: Fungicidal activity, inhibition, CA
[9] = read-out: Fungicidal activity, inhibition, GZ
[10] = read-out: Fungicidal activity, inhibition, PI
[11] = read-out: Fungicidal activity, inhibition, PP
[12] = read-out: Fungicidal activity, inhibition, PS
[13] = read-out: Fungicidal activity, inhibition, RC
[14] = read-out: Fungicidal activity (inhibition) against SS: Sclerotinia sclerotiorum
[15] = read-out: Fungicidal activity, inhibition, SS
[16] = read-out: Fungicidal activity (inhibition) against AS: Alternaria solani
[17] = read-out: Fungicidal activity (inhibition) against BC: Botrytis cinerea
[18] = read-out: Fungicidal activity (inhibition) against CA: Cercospora arachidicola
[19] = read-out: Fungicidal activity (inhibition) against GZ: wheat Gibberella zeae
[20] = read-out: Fungicidal activity (inhibition) against PI: Phytophthora infestans (Mont) de Bary
[21] = read-out: Fungicidal activity (inhibition) against PP: Physalospora piricola
[22] = read-out: Fungicidal activity (inhibition) against PS: Pellicularia sasakii
[23] = read-out: Fungicidal activity (inhibition) against RC: Rhizoctonia cerealis

| SMILES | inhibition at 100 µg/mL [1] [%] | inhibition at 100 µg/mL [2] [%] | inhibition at 100 µg/mL [3] [%] | inhibition at 100 µg/mL [4] [%] | inhibition at 50 µg/mL (Alternaria solani; [6]) [%] | inhibition at 50 µg/mL (Botrytis cinerea; [7]) [%] | inhibition at 50 µg/mL (Cercospora arachidicola; [8]) [%] | inhibition at 50 µg/mL (wheat Gibberella zeae; [9]) [%] | inhibition at 50 µg/mL [5, 10] [%] | inhibition at 50 µg/mL (Physalospora piricola; [11]) [%] | inhibition at 50 µg/mL (Pellicularia sasakii; [12]) [%] | inhibition at 50 µg/mL (Rhizoctonia cerealis; [13]) [%] | inhibition at 50 µg/mL (Sclerotinia sclerotiorum; [14]) [%] | inhibition at 50 µg/mL (Sclerotinia sclerotiorum; [15]) [%] | melting point [°C] | EC90 (Sclerotinia sclerotiorum) [µg/mL] | inhibition at 50 µg/mL (Alternaria solani; [16]) [%] | inhibition at 50 µg/mL (Botrytis cinerea; [17]) [%] | inhibition at 50 µg/mL (Cercospora arachidicola; [18]) [%] | inhibition at 50 µg/mL (wheat Gibberella zeae; [19]) [%] | other results |
| --- | --- | --- | --- | --- | --- | --- | --- | --- | --- | --- | --- | --- | --- | --- | --- | --- | --- | --- | --- | --- | --- |
| O=C(N/C(=C\c1ccccc1)C(=O)N1CCC(O)(c2ccc(Br)cc2)CC1)C1CC1 [Compound 1, (Z)-N-[1-[[4-(4-bromophenyl)-4-hydroxy-1-piperidinyl]carbonyl]-2-phenylethenyl]cyclopropanecarboxamide] | 53 | 83 | 48 | 11 | 21 | 21 | 16 | 26 | 27 | 10 | 14 | 29 | 80 to 95 | 83 | 163 to 164 | – | – | – | – | – | Anti-TMV activity, Curative effect (inhibition) ([1]; 100 μg/mL, tobacco seedlings, checked on seventh day): 54% |
| O=C(N/C(=C\c1ccccc1)C(=O)N1CCC(O)(c2ccc(Br)cc2)CC1)C1CCCCC1 [Compound 2, (Z)-N-[1-[[4-(4-bromophenyl)-4-hydroxy-1-piperidinyl]carbonyl]-2-phenylethenyl]cyclohexanecarboxamide] | 50 | 81 | 43 | 77 | 15 | 15 | 12 | 22 | 23 | 7 | 19 | 16 | 100 | 100 | 124 to 126 | 565 (≈ 1110 µM) | – | – | – | – | – |
| O=C(N/C(=C\c1cccs1)C(=O)N1CCC(O)(c2ccc(Br)cc2)CC1)c1ccccc1 [Compound 24, (Z)-N-[1-[[4-(4-bromophenyl)-4-hydroxy-1-piperidinyl]carbonyl]-2-(2-thienyl)ethenyl]benzamide] | 0 | 1 | 36 | – | 15 | 14 | 16 | 23 | 17 | 10 | 18 | 19 | 67 | 67 | 180 to 182 | – | < 30 | ≤ 20 | < 25 | < 45 | inhibition at 50 µg/mL [5, 20]: < 25%; inhibition at 50 µg/mL (Physalospora piricola; [21]): < 20%; inhibition at 50 µg/mL (Pellicularia sasakii; [22]): < 30%; inhibition at 50 µg/mL (Rhizoctonia cerealis; [23]): < 20% |
| O=C(N/C(=C\c1ccco1)C(=O)N1CCC(O)(c2ccc(Br)cc2)CC1)c1ccccc1 [Compound 25, (Z)-N-[1-[[4-(4-bromophenyl)-4-hydroxy-1-piperidinyl]carbonyl]-2-(2-furanyl)ethenyl]benzamide] | 55 | 31 | 46 | – | 16 | 20 | 22 | 31 | 10 | 15 | 27 | 36 | 100 | 100 | 134 to 135 | 221 (≈ 446 µM) | < 30 | ≤ 20 | < 25 | < 45 | inhibition at 50 µg/mL [5, 20]: < 25%; inhibition at 50 µg/mL (Physalospora piricola; [21]): < 20%; inhibition at 50 µg/mL (Pellicularia sasakii; [22]): < 30%; inhibition at 50 µg/mL (Rhizoctonia cerealis; [23]): 36% |
